SMILES strings stand for the structures. Counter-ions that a name gives are not always drawn.

By IC50 is commonly meant the midpoint of a concentration-inhibition curve.

For this assay, the target named is T1, human recombinant 6His-Nterm SHP2 full-length (Thr2-Arg593) (Homo sapiens, UniProt Q06124).
T1 construct: 6His-Nterm SHP2 full-length (Thr2-Arg593, R&D system); 6His (N); purchased R&D system
T1 sequence (Q06124 2-593): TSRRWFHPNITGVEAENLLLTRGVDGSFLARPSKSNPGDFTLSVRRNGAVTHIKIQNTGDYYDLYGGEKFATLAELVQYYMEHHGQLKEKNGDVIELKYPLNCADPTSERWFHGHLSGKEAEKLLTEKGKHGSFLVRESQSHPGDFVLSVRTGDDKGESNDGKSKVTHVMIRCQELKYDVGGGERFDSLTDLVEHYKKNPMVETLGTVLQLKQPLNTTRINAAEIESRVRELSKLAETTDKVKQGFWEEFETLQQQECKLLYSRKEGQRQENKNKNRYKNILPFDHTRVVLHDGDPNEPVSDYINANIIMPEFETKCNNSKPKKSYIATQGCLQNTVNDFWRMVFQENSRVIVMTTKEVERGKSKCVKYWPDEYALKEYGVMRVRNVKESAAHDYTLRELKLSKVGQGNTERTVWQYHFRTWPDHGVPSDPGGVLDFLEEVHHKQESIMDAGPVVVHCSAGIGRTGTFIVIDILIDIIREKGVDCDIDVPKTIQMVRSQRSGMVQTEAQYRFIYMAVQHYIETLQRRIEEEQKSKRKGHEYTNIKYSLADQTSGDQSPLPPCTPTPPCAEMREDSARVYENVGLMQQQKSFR
Briefly: SHP2 Phosphatase Assay (DiFMUP fluorescence). The settings on record: SHP2 0.2 nM pre-incubated with 100 nM bi-phosphorylated activating peptide; compound 1000-0.05 nM, 30 min pre-incubation; DiFMUP 20 µM, 45 min, room temperature; 10-concentration dose-response. It is filed as biochemical. The method, boiled down:
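SHP2 (0.2 nM) preactivated ≥10 min with 100 nM bis-phosphorylated peptide, then 30 min with compound (10 concentrations, 1000–0.05 nM) at room temperature, pH 7.2 HEPES buffer with DTT. DiFMUP (20 µM, added solution) reacted 45 min, pervanadate-stopped; fluorescence 350/450 nm. IC50 by 4-parameter logistic fit.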
Turning to `CC(=O)c1ccc(F)c(-c2c(C)nc(N3CCC4(CC3)Cc3ncccc3[C@H]4N)c3ccnn23)c1` [Compound 204, 1-[4-fluoro-3-[6-methyl-4-[(5S)-5-aminospiro [5,7-dihydrocyclopenta[b]pyridine-6,4'-piperidine]-1'-yl]pyrazolo[1,5-a]pyrazin-7-yl]phenyl]ethanone], the IC50 amounted to 55 nM. Take `Cc1ccccc1-c1c(C)nc(N2CCC3(CC2)Cc2ncccc2[C@H]3N)c2ccnn12` [Compound 52, (5S)-1'-[6-methyl-7-(o-tolyl)pyrazolo[1,5-a]pyrazin-4-yl]spiro[5,7-dihydrocyclopenta[b]pyridine-6,4'-piperidine]-5-amine]: the IC50 came out at 24 nM. With `Cc1nc(N2CCC3(CC2)Cc2ncccc2[C@H]3N)c2ccnn2c1-c1ccsc1Cl` [Compound 54, (5S)-1'-[7-(2-chloro-3-thienyl)-6-methyl-pyrazolo[1,5-a]pyrazin-4-yl]spiro[5,7-dihydrocyclopenta[b]pyridine-6,4'-piperidine]-5-amine], the IC50 turned out to be 4 nM. The result for `Cc1cc(-c2c(C)nc(N3CCC4(CC3)Cc3ncccc3[C@H]4N)c3ccnn23)n(C)n1` [Compound 44, (5S)-1'-[7-(2,5-dimethylpyrazol-3-yl)-6-methyl-pyrazolo[1,5-a]pyrazin-4-yl]spiro[5,7-dihydrocyclopenta[b]pyridine-6,4'-piperidine]-5-amine] reads 15 nM.

`N[C@@H]1c2cccnc2CC12CCN(c1ncc(-c3cnn4ccccc34)n3nccc13)CC2` [Compound 90, (5S)-1'-(7-pyrazolo[1,5-a]pyridin-3-ylpyrazolo[1,5-a]pyrazin-4-yl)spiro [5,7-dihydrocyclopenta[b]pyridine-6,4'-piperidine] -5-amine hydrochloride]: the concentration for half-maximal inhibition (IC50) worked out at 13 nM.

Take `Cc1nc(N2CCC3(CC2)Cc2ncc(C#N)cc2[C@H]3N)c2ccnn2c1-c1ccccc1F` [Compound 209, (5S)-5-amino-1'-[7-(2-fluorophenyl)-6-methyl-pyrazolo[1,5-a]pyrazin-4-yl]spiro[5,7-dihydrocyclopenta[b]pyridine-6,4'-piperidine]-3-carbonitrile]: the IC50 is 21 nM. `Cc1nc(N2CCC3(CC2)Cc2ccccc2[C@H]3N)c2ccnn2c1-c1cnn(C)c1C` [Compound 149, (1S)-1'-[7-(1,5-dimethylpyrazol-4-yl)-6-methyl-pyrazolo[1,5-a]pyrazin-4-yl]spiro[indane-2,4'-piperidine]-1-amine]: the IC50 amounted to 17 nM.

As to `Cc1nc(C)c(-c2c(C)nc(N3CCC4(CC3)Cc3ncccc3[C@H]4N)c3ccnn23)s1` [Compound 161, (5S)-1'-[7-(2,4-dimethylthiazol-5-yl)-6-methyl-pyrazolo[1,5-a]pyrazin-4-yl]spiro [5,7-dihydrocyclopenta[b]pyridine-6,4'-piperidine]-5-amine hydrochloride], the concentration for half-maximal inhibition (IC50) amounted to 29 nM.

For `N[C@@H]1c2cccnc2CC12CCN(c1ncc(-c3cccc(F)c3F)n3nccc13)CC2` [Compound 26, (5S)-1'-[7-(2,3-difluorophenyl)pyrazolo[1,5-a]pyrazin-4-yl]spiro[5,7-dihydrocyclopenta[b]pyridine-6,4'-piperidine] -5-amine formate], the IC50 is 23 nM.

In the case of `Cc1nc(N2CCC3(CC2)Cc2ncccc2[C@H]3N)c2ccnn2c1-c1cccc(Cl)c1Cl` [Compound 192, (5S)-1'-[7-(2,3-dichlorophenyl)-6-methyl-pyrazolo[1,5-a]pyrazin-4-yl]spiro[5,7-dihydrocyclopenta[b]pyridine-6,4'-piperidine]-5-amine], the IC50 was determined as 2 nM. For `Cc1ncc(-c2c(C)nc(N3CCC4(CC3)Cc3ncccc3[C@H]4N)c3ccnn23)s1` [Compound 152, (5S)-1'-[6-methyl-7-(2-methylthiazol-5-yl)pyrazolo [1,5-a]pyrazin-4-yl]spiro[5,7-dihydrocyclopenta[b]pyridine-6,4'-piperidine] -5-amine] the value was 9 nM. As for `Cc1cc2c(cn1)CC1(CCN(c3nc(C)c(-c4ccnc(C)c4F)n4nccc34)CC1)[C@@H]2N` [Compound 116, (5S)-1'-[7-(3-fluoro-2-methyl-4-pyridyl)-6-methyl-pyrazolo[1,5-a]pyrazin-4-yl]-3-methyl-spiro[5,7-dihydrocyclopenta[c]pyridine-6,4'-piperidine]-5-amine], the IC50 amounted to 8 nM. For `Cc1nc(N2CCC3(CC2)Cc2c(F)cccc2[C@H]3N)c2ccnn2c1-c1cnn(C)c1C` [Compound 95, (1S)-1'-[7-(1,5-dimethylpyrazol-4-yl)-6-methyl-pyrazolo[1,5-a]pyrazin-4-yl]-4-fluoro-spiro[indane-2,4'-piperidine]-1-amine formate] the value was 19 nM; for `Cc1nc(N2CCC3(CC2)Cc2ncccc2[C@H]3N)c2ccnn2c1-c1cscn1` [Compound 160, (5S)-1'-(6-methyl-7-thiazol-4-yl-pyrazolo[1,5-a]pyrazin-4-yl)spiro[5,7-dihydrocyclopenta[b]pyridine-6,4'-piperidine]-5-amine hydrochloride], 63 nM; for `Cc1nccc(-c2c(C)nc(N3CCC4(CC3)Cc3ccccc3[C@H]4N)c3ccnn23)c1Cl` [Compound 25, (S)-1'-(7-(3-chloro-2-methylpyridin-4-yl)-6-methylpyrazolo[1,5-a]pyrazin-4-yl)-1,3-dihydrospiro[indene-2,4'-piperidin]-1-amine hydrochloride], 6 nM. Consider `Cc1nc(N2CCC3(CC2)Cc2ncccc2[C@H]3N)c2ccnn2c1-c1ccc(Cl)s1` [Compound 53, (5S)-1'-[7-(5-chloro-2-thienyl)-6-methyl-pyrazolo[1,5-a]pyrazin-4-yl]spiro[5,7-dihydrocyclopenta[b]pyridine-6,4'-piperidine]-5-amine], for which the IC50 worked out at 3 nM. `CNc1cc(-c2c(C)nc(N3CCC4(CC3)Cc3ncccc3[C@H]4N)c3ccnn23)ccn1` [Compound 168, (5S)-1'-[6-methyl-7-[2-(methylamino)-4-pyridyl]pyrazolo[1,5-a]pyrazin-4-yl]spiro[5,7-dihydrocyclopenta[b]pyridine-6,4'-piperidine]-5-amine]: the IC50 is 30 nM. The result for `Cc1nc(N2CCC3(CC2)Cc2ncccc2[C@H]3N)c2ccnn2c1-c1cccc(CO)c1` [Compound 191, [3-[6-methyl-4-[(5S)-5-aminospiro [5,7-dihydrocyclopenta[b]pyridine-6,4'-piperidine]-1'-yl]pyrazolo[1,5-a]pyrazin-7-yl]phenyl]methanol] reads 16 nM; that for `Cc1nc(N2CCC3(CC2)Cc2ncccc2[C@H]3N)c2ccnn2c1-c1ccc2scnc2c1` [Compound 170, (5S)-1'-[7-(1,3-benzothiazol-5-yl)-6-methyl-pyrazolo[1,5-a]pyrazin-4-yl]spiro[5,7-dihydrocyclopenta[b]pyridine-6,4'-piperidine]-5-amine], 11 nM; that for `COc1cc2c(cn1)[C@@H](N)C1(CCN(c3nc(C)c(-c4ccccc4F)n4nccc34)CC1)C2` [Compound 122, (7S)-1''-[7-(2-fluorophenyl)-6-methyl-pyrazolo[1,5-a]pyrazin-4-yl] -3-methoxy-spiro [5,7-dihydrocyclopenta[c]pyridine-6,4'-piperidine]-7-amine], 12 nM. The result for `Cc1nc(N2CCC3(CC2)Cc2ncccc2[C@H]3N)c2ccnn2c1-c1ccc(C#N)cc1F` [Compound 206, 3-fluoro-4-[6-methyl-4-[(5S)-5-aminospiro[5,7-dihydrocyclopenta[b]pyridine-6,4'-piperidine]-1'-yl]pyrazolo[1,5-a]pyrazin-7-yl]benzonitrile] reads 12 nM; that for `Cc1cccc(-c2c(C)nc(N3CCC4(CC3)Cc3ncccc3[C@H]4N)c3ccnn23)c1F` [Compound 166, (5S)-1'-[7-(2-fluoro-3-methyl-phenyl)-6-methyl-pyrazolo[1,5-a]pyrazin-4-yl]spiro[5,7-dihydrocyclopenta[b]pyridine-6,4'-piperidine]-5-amine], 7 nM. For `COc1ccc2c(n1)[C@H](N)C1(CCN(c3nc(C)c(-c4cccc(F)c4Cl)n4nccc34)CC1)C2` [Compound 216, (7R)-1'-[7-(2-chloro-3-fluoro-phenyl)-6-methyl-pyrazolo[1,5-a]pyrazin-4-yl]-2-methoxy-spiro[5,7-dihydrocyclopenta[b]pyridine-6,4'-piperidine]-7-amine] the value was 685 nM; for `N[C@@H]1c2cccnc2CC12CCN(c1ncc(-c3cccc(F)c3Cl)n3nccc13)CC2` [Compound 87, (5 S)-1'-[7-(2-chloro-3-fluorophenyl)pyrazolo[1,5-a]pyrazin-4-yl]spiro [5,7-dihydrocyclopenta[b]pyridine-6,4'-piperidine] -5-amine hydrochloride], 22 nM. On to `Cc1nc(N2CCC3(CC2)Cc2ncccc2[C@H]3N)c2ccnn2c1-c1ccc(F)c(F)c1` [Compound 201, (5S)-1'-[7-(3,4-difluorophenyl)-6-methyl-pyrazolo[1,5-a]pyrazin-4-yl]spiro[5,7-dihydrocyclopenta[b]pyridine-6,4'-piperidine]-5-amine], for which the IC50 amounted to 3 nM.
